According to patent US20230340012A1, “NATURAL AND SYNTHETIC COMPOUNDS FOR TREATING CANCER AND OTHER DISEASES” (PACIFIC ARROW LIMITED, priority 2009, published 2023):

system: cancer cells; assay: MTT cytotoxic assay of esterification products (Cytotoxicity activity); assay type: cell-based, human; conditions: E4A esterified with Acetyl chloride (Acy = Acetyl), compounds isolated with HPLC
How it was run: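 Cytotoxicity was read by MTT (Carmichael method, modified), with cells seeded 24 h ahead of treatment. Sixteen human cancer lines spanning bone, lung, bladder, ovary, colon, pancreas, prostate, skin, mouth, kidney, breast, liver, brain, leukemia and cervix were used. Test samples were acyl chloride esterification products of triterpenes, as mixtures or HPLC-purified compounds.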

SMILES | Cytotoxicity activity
CC(=O)OCC1(C)C(O)CCC2(C)C1CCC1(C)C2CC=C2C3CC(C)(C)C(O)C(O)C3(CO)C(O)CC21C (stereo not drawn) [Compound H1] | moderate
CC(=O)OCC12C(O)CC3(C)C(=CCC4C5(C)CCC(O)C(C)(CO)C5CCC43C)C1CC(C)(C)C(O)C2O (stereo not drawn) [Compound H2] | moderate
CC(=O)OCC1(C)C(O)CCC2(C)C1CCC1(C)C2CC=C2C3CC(C)(C)C(O)C(O)C3(COC(C)=O)C(O)CC21C (stereo not drawn) [Compound H3] | strong
CC(=O)OCC1(C)C(O)CCC2(C)C1CCC1(C)C2CC=C2C3CC(C)(C)C(OC(C)=O)C(O)C3(COC(C)=O)C(O)CC21C (stereo not drawn) [Compound H4] | moderate
CC(=O)OCC1(C)C(O)CCC2(C)C1CCC1(C)C2CC=C2C3CC(C)(C)C(O)C(OC(C)=O)C3(COC(C)=O)C(O)CC21C (stereo not drawn) [Compound H5] | moderate
CC(=O)OCC1(C)C(OC(C)=O)CCC2(C)C1CCC1(C)C2CC=C2C3CC(C)(C)C(O)C(O)C3(COC(C)=O)C(O)CC21C (stereo not drawn) [Compound H6] | moderate
CC(=O)OCC1(C)C(O)CCC2(C)C1CCC1(C)C2CC=C2C3CC(C)(C)C(O)C(O)C3(COC(C)=O)C(OC(C)=O)CC21C (stereo not drawn) [Compound H7] | moderate

same assay, conditions: MTT cytotoxic assay, isolated esterification products of E4A

SMILES | Cytotoxicity activity
CCCCCC(=O)OCC12C(O)CC3(C)C(=CCC4C5(C)CCC(O)C(C)(CO)C5CCC43C)C1CC(C)(C)C(OC(=O)CCCCC)C2O (stereo not drawn) [Compound D25] | moderate
CCCCCC(=O)OCC12C(O)CC3(C)C(=CCC4C5(C)CCC(O)C(C)(CO)C5CCC43C)C1CC(C)(C)C(O)C2OC(=O)CCCCC (stereo not drawn) [Compound D26] | moderate
CCCCCC(=O)OCC12C(O)CC3(C)C(=CCC4C5(C)CCC(OC(=O)CCCCC)C(C)(CO)C5CCC43C)C1CC(C)(C)C(O)C2O (stereo not drawn) [Compound D27] | moderate
CCCCCC(=O)OCC12C(OC(=O)CCCCC)CC3(C)C(=CCC4C5(C)CCC(O)C(C)(CO)C5CCC43C)C1CC(C)(C)C(O)C2O (stereo not drawn) [Compound D28] | moderate
CCCCCC(=O)OCC1(C)C(O)CCC2(C)C1CCC1(C)C2CC=C2C3CC(C)(C)C(OC(=O)CCCCC)C(O)C3(CO)C(O)CC21C (stereo not drawn) [Compound D29] | moderate
CCCCCC(=O)OCC1(C)C(O)CCC2(C)C1CCC1(C)C2CC=C2C3CC(C)(C)C(O)C(OC(=O)CCCCC)C3(CO)C(O)CC21C (stereo not drawn) [Compound D30] | moderate
CCCCCC(=O)OCC1(C)C(OC(=O)CCCCC)CCC2(C)C1CCC1(C)C2CC=C2C3CC(C)(C)C(O)C(O)C3(CO)C(O)CC21C (stereo not drawn) [Compound D31] | moderate
CCCCCC(=O)OCC1(C)C(O)CCC2(C)C1CCC1(C)C2CC=C2C3CC(C)(C)C(O)C(O)C3(CO)C(OC(=O)CCCCC)CC21C (stereo not drawn) [Compound D32] | moderate
CCC(CC)C(=O)OCC1(C)C(O)CCC2(C)C1CCC1(C)C2CC=C2C3CC(C)(C)C(O)C(O)C3(CO)C(O)CC21C (stereo not drawn) [Compound E1] | moderate
CCC(CC)C(=O)OCC12C(O)CC3(C)C(=CCC4C5(C)CCC(O)C(C)(CO)C5CCC43C)C1CC(C)(C)C(O)C2O (stereo not drawn) [Compound E2] | moderate
CCC(CC)C(=O)OCC1(C)C(O)CCC2(C)C1CCC1(C)C2CC=C2C3CC(C)(C)C(O)C(O)C3(COC(=O)C(CC)CC)C(O)CC21C (stereo not drawn) [Compound E3] | strong
CCC(CC)C(=O)OCC1(C)C(O)CCC2(C)C1CCC1(C)C2CC=C2C3CC(C)(C)C(OC(=O)C(CC)CC)C(O)C3(COC(=O)C(CC)CC)C(O)CC21C (stereo not drawn) [Compound E4] | moderate
CCC(CC)C(=O)OCC1(C)C(O)CCC2(C)C1CCC1(C)C2CC=C2C3CC(C)(C)C(O)C(OC(=O)C(CC)CC)C3(COC(=O)C(CC)CC)C(O)CC21C (stereo not drawn) [Compound E5] | moderate
CCC(CC)C(=O)OCC1(C)C(OC(=O)C(CC)CC)CCC2(C)C1CCC1(C)C2CC=C2C3CC(C)(C)C(O)C(O)C3(COC(=O)C(CC)CC)C(O)CC21C (stereo not drawn) [Compound E6] | moderate
CCC(CC)C(=O)OCC1(C)C(O)CCC2(C)C1CCC1(C)C2CC=C2C3CC(C)(C)C(O)C(O)C3(COC(=O)C(CC)CC)C(OC(=O)C(CC)CC)CC21C (stereo not drawn) [Compound E7] | moderate
CCC(CC)C(=O)OCC1(C)C(O)CCC2(C)C1CCC1(C)C2CC=C2C3CC(C)(C)C(OC(=O)C(CC)CC)C(OC(=O)C(CC)CC)C3(COC(=O)C(CC)CC)C(O)CC21C (stereo not drawn) [Compound E8] | weak
CCC(CC)C(=O)OCC1(C)C(OC(=O)C(CC)CC)CCC2(C)C1CCC1(C)C2CC=C2C3CC(C)(C)C(O)C(OC(=O)C(CC)CC)C3(COC(=O)C(CC)CC)C(O)CC21C (stereo not drawn) [Compound E9] | weak
CCC(CC)C(=O)OCC1(C)C(OC(=O)C(CC)CC)CCC2(C)C1CCC1(C)C2CC=C2C3CC(C)(C)C(O)C(O)C3(COC(=O)C(CC)CC)C(OC(=O)C(CC)CC)CC21C (stereo not drawn) [Compound E10] | weak
CCC(CC)C(=O)OCC1(C)C(OC(=O)C(CC)CC)CCC2(C)C1CCC1(C)C2CC=C2C3CC(C)(C)C(OC(=O)C(CC)CC)C(O)C3(COC(=O)C(CC)CC)C(O)CC21C (stereo not drawn) [Compound E11] | weak
CCC(CC)C(=O)OCC1(C)C(O)CCC2(C)C1CCC1(C)C2CC=C2C3CC(C)(C)C(O)C(OC(=O)C(CC)CC)C3(COC(=O)C(CC)CC)C(OC(=O)C(CC)CC)CC21C (stereo not drawn) [Compound E12] | weak
CCC(CC)C(=O)OCC1(C)C(O)CCC2(C)C1CCC1(C)C2CC=C2C3CC(C)(C)C(OC(=O)C(CC)CC)C(O)C3(COC(=O)C(CC)CC)C(OC(=O)C(CC)CC)CC21C (stereo not drawn) [Compound E13] | weak

SMILES | Cytotoxicity activity
CCC(CC)C(=O)OCC1(C)C(OC(=O)C(CC)CC)CCC2(C)C1CCC1(C)C2CC=C2C3CC(C)(C)C(O)C(OC(=O)C(CC)CC)C3(COC(=O)C(CC)CC)C(O)CC21C (stereo not drawn) [Compound E14] | weak
CCC(CC)C(=O)OCC1(C)C(OC(=O)C(CC)CC)CCC2(C)C1CCC1(C)C2CC=C2C3CC(C)(C)C(OC(=O)C(CC)CC)C(OC(=O)C(CC)CC)C3(COC(=O)C(CC)CC)C(O)CC21C (stereo not drawn) [Compound E15] | weak
CCC(CC)C(=O)OCC1(C)C(O)CCC2(C)C1CCC1(C)C2CC=C2C3CC(C)(C)C(OC(=O)C(CC)CC)C(OC(=O)C(CC)CC)C3(COC(=O)C(CC)CC)C(OC(=O)C(CC)CC)CC21C (stereo not drawn) [Compound E16] | weak
CCC(CC)C(=O)OCC1(C)C(OC(=O)C(CC)CC)CCC2(C)C1CCC1(C)C2CC=C2C3CC(C)(C)C(OC(=O)C(CC)CC)C(O)C3(COC(=O)C(CC)CC)C(OC(=O)C(CC)CC)CC21C (stereo not drawn) [Compound E17] | weak
CCC(CC)C(=O)OCC1(C)C(OC(=O)C(CC)CC)CCC2(C)C1CCC1(C)C2CC=C2C3CC(C)(C)C(O)C(OC(=O)C(CC)CC)C3(COC(=O)C(CC)CC)C(OC(=O)C(CC)CC)CC21C (stereo not drawn) [Compound E18] | weak
CCC(CC)C(=O)OCC1(C)C(OC(=O)C(CC)CC)CCC2(C)C1CCC1(C)C2CC=C2C3CC(C)(C)C(OC(=O)C(CC)CC)C(OC(=O)C(CC)CC)C3(COC(=O)C(CC)CC)C(OC(=O)C(CC)CC)CC21C (stereo not drawn) [Compound E19] | none
CCC(CC)C(=O)OCC12C(O)CC3(C)C(=CCC4C5(C)CCC(O)C(C)(CO)C5CCC43C)C1CC(C)(C)C(OC(=O)C(CC)CC)C2OC(=O)C(CC)CC (stereo not drawn) [Compound E20] | moderate
CCC(CC)C(=O)OCC1(C)C(O)CCC2(C)C1CCC1(C)C2CC=C2C3CC(C)(C)C(OC(=O)C(CC)CC)C(OC(=O)C(CC)CC)C3(CO)C(O)CC21C (stereo not drawn) [Compound E21] | moderate
CCC(CC)C(=O)OC1C(OC(=O)C(CC)CC)C2(CO)C(OC(=O)C(CC)CC)CC3(C)C(=CCC4C5(C)CCC(O)C(C)(CO)C5CCC43C)C2CC1(C)C (stereo not drawn) [Compound E22] | moderate
CCC(CC)C(=O)OC1C(OC(=O)C(CC)CC)C2(CO)C(O)CC3(C)C(=CCC4C5(C)CCC(OC(=O)C(CC)CC)C(C)(CO)C5CCC43C)C2CC1(C)C (stereo not drawn) [Compound E23] | moderate
CCC(CC)C(=O)OC1C(OC(=O)C(CC)CC)C2(CO)C(O)CC3(C)C(=CCC4C5(C)CCC(O)C(C)(CO)C5CCC43C)C2CC1(C)C (stereo not drawn) [Compound E24] | moderate
CCC(CC)C(=O)OCC12C(O)CC3(C)C(=CCC4C5(C)CCC(O)C(C)(CO)C5CCC43C)C1CC(C)(C)C(OC(=O)C(CC)CC)C2O (stereo not drawn) [Compound E25] | moderate
CCC(CC)C(=O)OCC12C(O)CC3(C)C(=CCC4C5(C)CCC(O)C(C)(CO)C5CCC43C)C1CC(C)(C)C(O)C2OC(=O)C(CC)CC (stereo not drawn) [Compound E26] | moderate
CCC(CC)C(=O)OCC12C(O)CC3(C)C(=CCC4C5(C)CCC(OC(=O)C(CC)CC)C(C)(CO)C5CCC43C)C1CC(C)(C)C(O)C2O (stereo not drawn) [Compound E27] | moderate
CCC(CC)C(=O)OCC12C(OC(=O)C(CC)CC)CC3(C)C(=CCC4C5(C)CCC(O)C(C)(CO)C5CCC43C)C1CC(C)(C)C(O)C2O (stereo not drawn) [Compound E28] | moderate
CCC(CC)C(=O)OCC1(C)C(O)CCC2(C)C1CCC1(C)C2CC=C2C3CC(C)(C)C(OC(=O)C(CC)CC)C(O)C3(CO)C(O)CC21C (stereo not drawn) [Compound E29] | moderate
CCC(CC)C(=O)OCC1(C)C(O)CCC2(C)C1CCC1(C)C2CC=C2C3CC(C)(C)C(O)C(OC(=O)C(CC)CC)C3(CO)C(O)CC21C (stereo not drawn) [Compound E30] | moderate
CCC(CC)C(=O)OCC1(C)C(OC(=O)C(CC)CC)CCC2(C)C1CCC1(C)C2CC=C2C3CC(C)(C)C(O)C(O)C3(CO)C(O)CC21C (stereo not drawn) [Compound E31] | moderate
CCC(CC)C(=O)OCC1(C)C(O)CCC2(C)C1CCC1(C)C2CC=C2C3CC(C)(C)C(O)C(O)C3(CO)C(OC(=O)C(CC)CC)CC21C (stereo not drawn) [Compound E32] | moderate
C/C=C(/C)C(=O)OC[C@]1(C)[C@@H]2CC[C@]3(C)[C@H](CC=C4[C@@H]5CC(C)(C)[C@@H](O)[C@H](O)[C@]5(CO)[C@H](O)C[C@]43C)[C@@]2(C)CC[C@@H]1OC(=O)/C(C)=C\C [Compound G31] | moderate
